Like-named read-outs stand apart in the source and are kept apart here.
Key:
wild type T. brucei = experiment: 96-well manual assay on wild type T. brucei; assay type: cell-based; conditions: Trypanosoma brucei, read-out: T. brucei EC50 (SD)
Experimental: (§1) In order to determine if analogues 35, 38, 44 and 46 are substrates for the P2 transporter they were assayed against a line of T. brucei lacking the gene which codes for the P2 transporter (Table 2).[33] If the analogues are transported they would be expected to show greater potency against wild type T. brucei than against the P2 knock out line. Compounds 8 and 19,[25] which contain the triazole and indolyl quinol pharmacophore respectively, but lack a P2 motif, served as negative controls.
(§2) The 96-well HTS assays against blood stream form T. brucei[38] and MRC5 cells were carried out as reported previously.[39] The manual assays performed on the AT1 double knock out T. brucei and wild type T. brucei were conducted as described by Jones et al.[39]

T. brucei AT1 KO = experiment: 96-well manual assay on AT1 double knock out T. brucei (P2 transporter knock out); assay type: cell-based, Trypanosoma brucei; conditions: for EC50: Trypanosoma brucei, read-out: T. brucei AT1 KO EC50 (SD); for Cell line selectivity: EC50 (AT1 KO)/EC50 (WT): manual assay
Experimental: as §1, with “If the analogues are transported they would be expected to show greater potency against wild type T. brucei than against the P2 knock out line.” left out
as §2

[1] = system: blood stream form T. brucei; experiment: 96-well HTS assay against blood stream form T. brucei; assay type: cell-based, Trypanosoma brucei; conditions: for EC50: Trypanosoma brucei
Experimental: as §2

MRC5 cells [2] = experiment: cells; assay type: cell-based, human; conditions: Homo sapiens, MRC5, read-out: EC50 MRC5 (SD, n)
Experimental: as §2

MRC5 cells [3] = system: MRC5 cells; set-up: method as in PMID 21212280; conditions: Table 1; data taken from Konig et al.; cited from earlier work
[4] = system: blood stream form T. brucei; set-up: method as in PMID 21212280; conditions: cited from earlier work; for EC50: Table 1, data taken from Konig et al.
in vitro = assay type: cell-based, human; conditions: human
Experimental: as §2

[5] = Table 2, 96-well manual assay, wild type, weighted mean of three independent experiments
[6] = Table 1, arithmetic mean of independent determinations, read-out: EC50 T. brucei (SD, n)
[7] = Table 2, 96-well HTS assay, blood stream form T. b. brucei, read-out: T. brucei EC50 (SD, n)

In the case of `N=C(N)c1ccc(/N=N/Nc2ccc(C(=N)N)cc2)cc1` [Berenil, reference compound], the EC50 (wild type T. brucei; [5]) is reported as 31 nM, the EC50 (T. brucei AT1 KO) is reported as 330 nM and the “Cell line selectivity: EC50 (AT1 KO)/EC50 (WT)” value (“Cell line selectivity: EC50” for short) (T. brucei AT1 KO) is reported as 11.
`C#CC1(O)C=CC(=O)C=C1` [Compound 1, 4-Ethynyl-4-hydroxycyclohexa-2,5-dienone] showed an EC50 [1, 6] of 2000 nM and an EC50 (MRC5 cells [2]) of 2100 nM.
In the case of `O=C1C=CC(O)(C#Cc2ccc(CC(=O)Nc3ccccc3)cc2)C=C1` [Compound 3, 2-(4-((1-Hydroxy-4-oxocyclohexa-2,5-dien-1-yl)ethynyl)phenyl)-N-phenylacetamide], the EC50 [1, 6] is reported as 2200 nM and the EC50 (MRC5 cells [2]) is reported as 670 nM.
For `O=C1C=CC(O)(c2nc3ccccc3s2)C(Cl)=C1` (centres unmarked) [Compound 6], the “activity against T. brucei in words” value [1] was “low nanomolar range”, the EC50 [1, 6] was 46 nM and the EC50 (MRC5 cells [2]) was 55 nM.
In the case of `Oc1ccc(-c2nc3ccccc3s2)cc1` [Compound 7], the EC50 (MRC5 cells [3]) is given as greater than 50 µM, the EC50 [4] is given as greater than 50000 nM and the “activity against T. brucei in words” value [4] is given as “inactive”.
For `COc1ccc(-n2cc(C3(O)C=CC(=O)C=C3)nn2)cc1` [Compound 8], the EC50 (wild type T. brucei) was 95 nM, the EC50 (T. brucei AT1 KO) was 74 nM and the “Cell line selectivity: EC50” value (T. brucei AT1 KO) was 0.78.
For `COc1ccc(Cn2cc(C3(O)C=CC(=O)C=C3)nn2)cc1` [Compound 9], the EC50 [1, 6] was 160 nM and the EC50 (MRC5 cells [2]) was 450 nM.
In the case of `O=C1C=CC(O)(c2cn(-c3ccc4ncsc4c3)nn2)C=C1` [Compound 10], the “activity against T. brucei in words” value [1] is reported as “low nanomolar range”, the EC50 [1, 6] is reported as 27 nM and the EC50 (MRC5 cells [2]) is reported as 69 nM.
`CC(=O)OC[C@H]1O[C@@H](n2cc(C3(O)C=CC(=O)C=C3)nn2)[C@H](OC(C)=O)[C@@H](OC(C)=O)[C@H]1OC(C)=O` [Compound 11] gave an EC50 [1, 6] of 10000 nM and an EC50 (MRC5 cells [2]) greater than 50000 nM.
In the case of `O=C1C=CC(O)(c2cn(CCC(=O)Nc3ccccc3)nn2)C=C1` [Compound 12, 3-(4-(1-Hydroxy-4-oxocyclohexa-2,5-dien-1-yl)-1H-1,2,3-triazol-1-yl)-N-phenylpropanamide], the EC50 [1, 6] is reported as 2700 nM and the EC50 (MRC5 cells [2]) is reported as 18000 nM.
In the case of `O=C1C=CC(O)(c2cc3ccc(F)cc3n2S(=O)(=O)c2ccccc2)C=C1` [Compound 13], the EC50 [4] is given as 100 nM.
For `O=C1C=CC(O)(c2cc3cnccc3n2S(=O)(=O)c2ccccc2)C=C1` [Compound 15], the “activity against T. brucei in words” value [1] was “low nanomolar range”, the EC50 [1, 6] was 22 nM and the EC50 (MRC5 cells [2]) was 41 nM.
In the case of `Cc1ccc(S(=O)(=O)n2c(C3(O)C=CC(=O)C=C3)cc3ccncc32)cc1` [Compound 16], the “activity against T. brucei in words” value [1] is reported as “low nanomolar range”, the EC50 [1, 6] is reported as 26 nM and the EC50 (MRC5 cells [2]) is reported as 44 nM.
With `CCOC(=O)Nc1ccc(S(=O)(=O)n2c(C3(O)C=CC(=O)C=C3)cc3ccccc32)cc1` [Compound 17] the EC50 [1, 6] was 50 nM and the EC50 (MRC5 cells [2]) was 86 nM.
In the case of `CC(=O)NCCc1ccc(S(=O)(=O)n2c(C3(O)C=CC(=O)C=C3)cc3ccccc32)cc1` [Compound 18], the “activity against T. brucei in words” value [1] is reported as “low nanomolar range”, the EC50 [1, 6] is reported as 12 nM and the EC50 (MRC5 cells [2]) is reported as 36 nM.
`COC(=O)CCc1ccc(S(=O)(=O)n2c(C3(O)C=CC(=O)C=C3)cc3ccccc32)cc1` [Compound 19, Methyl 3-(4-((2-(1-hydroxy-4-oxocyclohexa-2,5-dien-1-yl)-1H-indol-1-yl)sulfonyl)phenyl) propanoate] showed an EC50 [1, 6] of 160 nM, an EC50 [1, 7] of 160 nM and an EC50 (wild type T. brucei; [5]) of 60 nM. The EC50 (MRC5 cells [2]) was 280 nM, the EC50 (in vitro) was 0.28 µM and the EC50 (T. brucei AT1 KO) was 80 nM. For the same compound, the “Cell line selectivity: EC50” value (T. brucei AT1 KO) was 1.3.
`O=C1C=CC(O)(c2cc3ccccc3n2S(=O)(=O)c2ccc(CCCO)cc2)C=C1` [Compound 20] showed an EC50 [1, 6] of 24 nM and an EC50 (MRC5 cells [2]) of 51 nM.
In the case of `O=C1C=CC(O)(c2cc3ccccc3n2S(=O)(=O)c2ccc(CCC(=O)N3CCOCC3)cc2)C=C1` [Compound 21], the EC50 [1, 6] is reported as 36 nM and the EC50 (MRC5 cells [2]) is reported as 67 nM.
In the case of `CN1CCN(C(=O)CCc2ccc(S(=O)(=O)n3c(C4(O)C=CC(=O)C=C4)cc4ccccc43)cc2)CC1` [Compound 22], the EC50 [1, 6] is reported as 18 nM and the EC50 (MRC5 cells [2]) is reported as 52 nM.
`O=C1C=CC(O)(c2cc3ccccc3n2S(=O)(=O)c2ccc(CCCN3CCOCC3)cc2)C=C1` [Compound 23] gave an EC50 [1, 6] of 26 nM and an EC50 (MRC5 cells [2]) of 79 nM.
Compound `CN1CCN(CCCc2ccc(S(=O)(=O)n3c(C4(O)C=CC(=O)C=C4)cc4ccccc43)cc2)CC1` [Compound 24] has an EC50 [1, 6] of 16 nM and an EC50 (MRC5 cells [2]) of 50 nM.
Compound `CS(=O)(=O)c1ccc(S(=O)(=O)n2c(C3(O)C=CC(=O)C=C3)cc3ccccc32)cc1` [Compound 25] has an EC50 [1, 6] of 24 nM and an EC50 (MRC5 cells [2]) of 39 nM.
Work on `N=C(N)c1ccc(-n2cc(C3(O)C=CC(=O)C=C3)nn2)cc1` [Compound 35, 4-(4-(1-Hydroxy-4-oxocyclohexa-2,5-dienyl)-1H-1,2,3-triazol-1-yl)benzimidamide] yielded an EC50 [1, 7] of 11000 nM, an EC50 (wild type T. brucei; [5]) of 5000 nM and an EC50 (in vitro) greater than 50 µM. For the same compound, the EC50 (T. brucei AT1 KO) was 6000 nM and the “Cell line selectivity: EC50” value (T. brucei AT1 KO) was 1.2.
Compound `Nc1nc(N)nc(-n2cc(C3(O)C=CC(=O)C=C3)nn2)n1` [Compound 38, 4-(1-(4,6-Diamino-1,3,5-triazin-2-yl)-1H-1,2,3-triazol-4-yl)-4-hydroxycyclohexa-2,5-dienone] has an EC50 [1, 7] of 6200 nM, an EC50 (wild type T. brucei; [5]) of 3800 nM and an EC50 (in vitro) greater than 50 µM. For the same compound, the EC50 (T. brucei AT1 KO) was 3800 nM and the “Cell line selectivity: EC50” value (T. brucei AT1 KO) was 1.0.
Work on `O=C1C=CC(O)(c2cc3ccccc3n2S(=O)(=O)c2ccc(CCC(=O)O)cc2)C=C1` [Compound 42, 3-(4-((2-(1-Hydroxy-4-oxocyclohexa-2,5-dien-1-yl)-1H-indol-1-yl)sulfonyl)phenyl)propanoic acid] yielded an EC50 [1, 7] of 740 nM and an EC50 (in vitro) of 3.3 µM.
In the case of `Nc1nc(N)nc(NCCCOC(=O)CCc2ccc(S(=O)(=O)n3c(C4(O)C=CC(=O)C=C4)cc4ccccc43)cc2)n1` [Compound 44, 3-((4,6-Diamino-1,3,5-triazin-2-yl)amino)propyl 3-(4-((2-(1-hydroxy-4-oxocyclohexa-2,5-dien-1-yl)-1H-indol-1-yl)sulfonyl)phenyl)propanoate], the EC50 [1, 7] is reported as 350 nM, the EC50 (wild type T. brucei; [5]) is reported as 250 nM and the EC50 (in vitro) is reported as 0.95 µM. The EC50 (T. brucei AT1 KO) was 260 nM and the “Cell line selectivity: EC50” value (T. brucei AT1 KO) was 1.0.
`Nc1nc(N)nc(NCCCNC(=O)CCc2ccc(S(=O)(=O)n3c(C4(O)C=CC(=O)C=C4)cc4ccccc43)cc2)n1` [Compound 46, N-(3-((4,6-Diamino-1,3,5-triazin-2-yl)amino)propyl)-3-(4-((2-(1-hydroxy-4-oxocyclohexa-2,5-dien-1-yl)-1H-indol-1-yl)sulfonyl)phenyl)propanamide] gave an EC50 [1, 7] of 3200 nM, an EC50 (wild type T. brucei; [5]) of 1700 nM and an EC50 (in vitro) of 18 µM. The EC50 (T. brucei AT1 KO) was 1800 nM and the “Cell line selectivity: EC50” value (T. brucei AT1 KO) was 1.1.
`Nc1nc(N)nc(Nc2ccc([As]3SCC(CO)S3)cc2)n1` (centres unmarked) [melarsoprol, reference compound] showed an EC50 ([1]; read-out: EC50 against T. brucei) of 33 nM.
In the case of `N=C(N)c1ccc(OCCCCCOc2ccc(C(=N)N)cc2)cc1` [pentamidine, reference compound], the EC50 ([1]; reference drugs assayed under identical conditions, read-out: EC50 against T. brucei) is reported as 8 nM.
